According to paper PMC6421848 (European journal of medicinal chemistry, 2018):

How the values were obtained:
HeLaS3 cells [1] = experiment: SRB antiproliferation assay, HeLaS3; conditions: read-out: IC50 HeLaS3, 72 h, mean ± SD of three experiments
HeLaS3 cells [2] = experiment: Mitochondrial membrane potential assay, HeLaS3; format: cell-based, human; conditions: HeLaS3, 24 h treatment
HeLaS3 cells [3] = experiment: ROS generation, HeLaS3; format: cell-based, human; conditions: HeLaS3, 24 h treatment
KB-vin cells [4] = experiment: Mitochondrial membrane potential assay, KB-vin; format: cell-based, human; conditions: 24 h treatment
KB-vin cells [5] = experiment: ROS generation, KB-vin; format: cell-based, human; conditions: 24 h treatment
NQO1 [6] = molecular target: T1, NQO1 (Homo sapiens, UniProt P15559); experiment: NQO1 activity assay kit in treated KB-vin cells; conditions: 24 h, serial concentrations
T1 sequence (P15559 whole entry): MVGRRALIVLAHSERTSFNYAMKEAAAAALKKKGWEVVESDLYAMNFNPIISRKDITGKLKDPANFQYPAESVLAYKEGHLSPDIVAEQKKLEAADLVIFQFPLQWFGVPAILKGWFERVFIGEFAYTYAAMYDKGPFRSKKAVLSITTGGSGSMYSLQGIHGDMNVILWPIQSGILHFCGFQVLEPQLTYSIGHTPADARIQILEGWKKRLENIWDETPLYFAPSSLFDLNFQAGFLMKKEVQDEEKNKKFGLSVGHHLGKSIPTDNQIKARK

NQO1 [7] = molecular target: T1, NQO1; experiment: NQO1 activity assay kit in treated HeLaS3 cells; conditions: HeLaS3, 24 h, serial concentrations
KB-vin cells [8] = experiment: NQO1-dependent cytotoxicity; conditions: SRB, 72 h
HeLaS3 cells [9] = experiment: NQO1-dependent cytotoxicity; conditions: HeLaS3, SRB, 72 h
NQO1 [10] = molecular target: T1, NQO1; experiment: NQO1 inhibitory kinetic assay; format: biochemical
HeLaS3 cells [11] = experiment: Western blot of apoptotic proteins; format: cell-based, human; conditions: HeLaS3, 72 h
[12] = test system: normal endometrial epithelial cells (EECs); experiment: MTT proliferation assay, normal endometrial epithelial cells; format: cell-based; conditions: increasing doses, 72 h
HeLaS3 cells [13] = experiment: MTT proliferation assay, HeLaS3; format: cell-based, human; conditions: increasing doses, 72 h

Molecule | IC50 (HeLaS3 cells [1]) | mitochondrial membrane potential (HeLaS3 cells [2]) | ROS production (HeLaS3 cells [3]) | mitochondrial membrane potential (KB-vin cells [4]) | ROS production (KB-vin cells [5]) | NQO1 activity after treatment (NQO1 [6]) | NQO1 activity after treatment (NQO1 [7]) | further results
6-((4-([1,4’ -Bipiperidin]-1’ -yl)phenyl)amino)quinoline-5,8-dione [Compound 6f] | 5.16 µM | – | – | – | – | – | – | –
7-((4-([1,4’ -Bipiperidin]-1’ -yl)phenyl)amino)quinoline-5,8-dione [Compound 7f] | 5.07 ± 0.1 µM | – | – | – | – | – | – | –
CN1CCN(c2ccc(NC3=CC(=O)c4ncccc4C3=O)cc2)CC1 [Compound 6d, 6-((4-(4-Methylpiperazin-1-yl)phenyl)amino)quinoline-5,8-dione] | – | significantly decreased in a dose-dependent manner | increased dose-dependently | significantly decreased in a dose-dependent manner | increased dose-dependently | – | – | –
COC(=O)/C=C/c1cccc(CNC2=CC(=O)c3ncccc3C2=O)c1 [Compound 6h, (E)-Methyl 3-(3-(((5,8-dioxo-5,8-dihydroquinolin-6-yl)amino)methyl)phenyl)acrylate] | – | significantly decreased in a dose-dependent manner | increased dose-dependently | significantly decreased in a dose-dependent manner | increased dose-dependently | inhibited dose-dependently | inhibited dose-dependently | –
O=C1C=C(NCCc2c[nH]c3ccccc23)C(=O)c2ncccc21 [Compound 7a, 7-((2-(1H-Indol-3-yl)ethyl)amino)quinoline-5,8-dione] | – | significantly decreased in a dose-dependent manner | increased dose-dependently | significantly decreased in a dose-dependent manner | increased dose-dependently | inhibited dose-dependently | inhibited dose-dependently | –
CN1CCN(c2ccc(NC3=CC(=O)c4cccnc4C3=O)cc2)CC1 [Compound 7d, 7-((4-(4-Methylpiperazin-1-yl)phenyl)amino)quinoline-5,8-dione] | – | significantly decreased in a dose-dependent manner | increased dose-dependently | significantly decreased in a dose-dependent manner | increased dose-dependently | inhibited dose-dependently | inhibited dose-dependently | cell viability of compound-treated cells on addition of DIC and NAc (KB-vin cells [8]): significantly increased; cell viability of compound-treated cells on addition of DIC and NAc (HeLaS3 cells [9]): significantly increased; mode of NQO1 inhibition (NQO1 [10]; Lineweaver-Burk plots): competitive inhibitors; maximum rate (Vmax) (NQO1 [10]; remained the same as inhibitor concentration increased): 11.03 ± 1.5 nmol/mg protein/20s; cleavage of caspase-3 (HeLaS3 cells [11]): induced more cleavage of caspase-3 than the control group; levels of anti-apoptotic Bcl-2 expression (HeLaS3 cells [11]; dose-dependent): reduced; relative levels of pro-apoptotic Bax expression (HeLaS3 cells [11]; dose-dependent): dramatically increased; effect on survival of non-tumor EECs [12]: no significant effect; effect on HeLaS3 cells, same treatment regimen (HeLaS3 cells [13]): induced major HeLaS3 cell death
